Earlier results as cited in patent publication US9399025B2, “Modified release dosage forms of skeletal muscle relaxants” (APTALIS PHARMATECH, INC., priority 2003, dated 2016).

CN(C)CCC=C1c2ccccc2C=Cc2ccccc21 [Cyclobenzaprine]
Elimination half-life (after oral administration): one to three | Absorption after oral administration (oral): well absorbed
